Patent US7771713B2, “Chemical composition that attract arthropods” (priority 1999, dated 2010)

Legend:
Anopheles albimanus = assay: Olfactometer attraction test of compounds and compositions; type: in vivo;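 further: olfactometer with a treatment port and a matching control port using identical delivery device and conditions, both opened together, three tests per battery, each run in its own cage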
Aedes aegypti = assay: Olfactometer attraction test, treatment port vs control port, approximately 75 female mosquitoes; type: in vivo; conditions: for Δ [(Resp with LA) − Resp] (%): difference between response with L-lactic acid and response alone; for Response with Ace (%): base compound together with acetone; for Δ [(Resp with Ace) − Resp] (%): difference between response with acetone and response alone
Procedure: The tests were conducted in an olfactometer (55 ft^3/min airflow, 80° F., 60% R.H.) as described by Posey, J. Med. Entomol., 35, 330-334 (1998); and LA is lactic acid. Mosquitoes were allowed to settle at least one hour prior to testing. The olfactometer was cleaned after each battery of tests. Each battery consisted of three tests, conducted at 08:30, 11:00 and 13:00 hours local time. Each of the three tests was conducted in a separate cage. The control consisted of identical sample delivery devices and conditions compared to that of the treatment side. Both the treatment and control ports were opened and closed simultaneously when inserting a new treatment/control.

[1] = compound 500 μL together with L-lactic acid
[2] = compound alone, high dose of 500 μL
[3] = base compound alone (mode of action similar to lactic acid)
[4] = single compound, dose 500 (μL), 60 mL glass petri dish, Aedes aegypti attraction
[5] = no Base, Activator1 dose 500, 60 mL glass petri dish

O=C(O)CC(O)C(=O)O (racemic) [DL-Malic Acid]
% caught (Anopheles albimanus; single substance, Crys dish (crystalline solid)): 0.0%

CC(Cl)(Cl)Cl [1,1,1-Trichloroethane]
% caught (Anopheles albimanus; single treatment, 500 μL): 61.0%

ClCC(Cl)Cl [1,1,2-Trichloroethane]
% caught (Anopheles albimanus; single treatment, 500 μL): 64.4%

O=C(CCl)C(Cl)Cl [1,1,3-Trichloroacetone]
% caught (Anopheles albimanus; single treatment, 500 μL): 5.6%

CN1CCNCC1 [1-Methylpiperazine]
% caught (Anopheles albimanus; single treatment, 500 μL): 1.3%

Cn1cccc1 [1-Methylpyrrole]
% caught (Anopheles albimanus; single treatment, 500 μL): 10.7%

CCCCCCCCCO [1-Nonanol]
% caught (Anopheles albimanus; single treatment, 500 μL): 4.1%

C=CC(O)CCCCC (stereo not shown) [1-Octen-3-ol]
% caught (Anopheles albimanus; single treatment, 500 μL): 24.0%

CCCS [1-Propanethiol]
% caught (Anopheles albimanus; single treatment, 500 μL): 24.0%

C=CCCCCCCCCCCCC [1-Tetradecene]
% caught (Anopheles albimanus; single treatment, 500 μL): 1.4%

C=CC(O)CCCC (stereo not shown) [1-hepten-3-ol]
Response with L-LA (%) (Aedes aegypti; [1]): 15%
Response (%) (Aedes aegypti; [2]): 10%
attraction of various mixtures and items (Aedes aegypti; default LA 200 μg, other chemicals 500 μL unless specified, containers as in the label): 7%
Δ [(Resp with LA) − Resp] (%) (Aedes aegypti): 5%

C=CCCCCC [1-heptene]
Response (%) (Aedes aegypti; [3]): 4%
Response with Ace (%) (Aedes aegypti): 34%
Response with L-LA (%) (Aedes aegypti; [1]): 19%
Response (%) (Aedes aegypti; [2]): 5%
Δ [(Resp with LA) − Resp] (%) (Aedes aegypti): 14%
Δ [(Resp with Ace) − Resp] (%) (Aedes aegypti): 30%
Response Avg % (Aedes aegypti; [4]): 5.0%

C=CCCCCCCC [1-nonene]
Response (%) (Aedes aegypti; [3]): 6%
Response with Ace (%) (Aedes aegypti): 54%
Response with L-LA (%) (Aedes aegypti; [1]): 8%
Response (%) (Aedes aegypti; [2]): 6%
Δ [(Resp with LA) − Resp] (%) (Aedes aegypti): 2%
Δ [(Resp with Ace) − Resp] (%) (Aedes aegypti): 48%

C=CCCCCCC [1-octene]
Response (%) (Aedes aegypti; [3]): 38%
Response with Ace (%) (Aedes aegypti): 63%
Response with L-LA (%) (Aedes aegypti; [1]): 42%
Response (%) (Aedes aegypti; [2]): 38%
Δ [(Resp with LA) − Resp] (%) (Aedes aegypti): 4%
Δ [(Resp with Ace) − Resp] (%) (Aedes aegypti): 25%

C=CC(=O)CC [1-penten-3-one]
% caught (Anopheles albimanus; single treatment, 500 μL): 29.3%
Response with L-LA (%) (Aedes aegypti; [1]): 23%
Response (%) (Aedes aegypti; [2]): 19%
Δ [(Resp with LA) − Resp] (%) (Aedes aegypti): 4%

CCCC(=O)C(C)=O [2,3-Hexanedione]
% caught (Anopheles albimanus; single treatment, 500 μL): 2.7%

CC(=O)C(C)=O [2,3-butanedione]
% caught (Anopheles albimanus; single treatment, 500 μL): 1.4%
Response with L-LA (%) (Aedes aegypti; [1]): 29%
Response (%) (Aedes aegypti; [2]): 37%
Δ [(Resp with LA) − Resp] (%) (Aedes aegypti): −8%

CC(C)CC(=O)CC(C)C [2,6-Dimethyl-4-Heptanone]
% caught (Anopheles albimanus; single treatment, 500 μL): 18.7%

Nc1ccccn1 [2-Aminopyridine]
% caught (Anopheles albimanus; single treatment, 500 μL): 0.0%

CCCCCCCCCCC(C)=O [2-Dodecanone]
% caught (Anopheles albimanus; single treatment, 500 μL): 1.4%

CCCCC(=O)C(C)C [2-Methyl-3-Heptanone]
% caught (Anopheles albimanus; single treatment, 500 μL): 34.7%

CCCCCC(=O)C(C)C [2-Methyl-3-Octanone]
% caught (Anopheles albimanus; single treatment, 500 μL): 30.1%

CC(C)S [2-Thiopropane]
% caught (Anopheles albimanus; single treatment, 500 μL): 20.5%

CCCCCCCCCCCC(C)=O [2-Tridecanone]
% caught (Anopheles albimanus; single treatment, 500 μL): 1.3%

CCCCCCCCCC(C)=O [2-Undecanone]
% caught (Anopheles albimanus; single treatment, 500 μL): 4.2%

CCC(C)=O [2-butanone]
% caught (Anopheles albimanus; single treatment, 500 μL): 47.9%
Response with L-LA (%) (Aedes aegypti; [1]): 81%
Response (%) (Aedes aegypti; [2]): 28%
Δ [(Resp with LA) − Resp] (%) (Aedes aegypti): 53%

CCCCCCCCC(C)=O [2-decanone]
% caught (Anopheles albimanus; single treatment, 500 μL): 4.0%
Response with L-LA (%) (Aedes aegypti; [1]): 24%
Response (%) (Aedes aegypti; [2]): 14%
Δ [(Resp with LA) − Resp] (%) (Aedes aegypti): 10%

CCCCCC(C)=O [2-heptanone]
% caught (Anopheles albimanus; single treatment, 500 μL): 10.4%
Response with L-LA (%) (Aedes aegypti; [1]): 42%
Response (%) (Aedes aegypti; [2]): 17%
Δ [(Resp with LA) − Resp] (%) (Aedes aegypti): 25%

CCCCCCCC(=O)CC [3-Decanone]
% caught (Anopheles albimanus; single treatment, 500 μL): 9.3%

CCCCCC(=O)CC [3-Octanone]
% caught (Anopheles albimanus; single treatment, 500 μL): 25.0%

CC=CC(C)=O [3-penten-2-one]
Response with L-LA (%) (Aedes aegypti; [1]): 49%
Response (%) (Aedes aegypti; [2]): 11%
Δ [(Resp with LA) − Resp] (%) (Aedes aegypti): 38%

CCCCCCC(=O)CCC [4-Decanone]
% caught (Anopheles albimanus; single treatment, 500 μL): 7.8%

CC=CC(=O)CC [4-Hexen-3-one]
% caught (Anopheles albimanus; single treatment, 500 μL): 79.2%

CC(=O)CCC(C)C [5-Methyl-2-Hexanone]
% caught (Anopheles albimanus; single treatment, 500 μL): 11.7%

CC(=O)C=CC=C(C)C [6-Methyl-3,5-Heptadien-2-one]
% caught (Anopheles albimanus; single treatment, 500 μL): 18.7%

CCCCCC(=O)CCCCC [6-Undecanone]
% caught (Anopheles albimanus; single treatment, 500 μL): 3.9%

CC(=O)O [Acetic Acid]
% caught (Anopheles albimanus; single treatment, 500 μL): 2.7%

CC(=O)CCC(C)=O [Acetonylacetone]
% caught (Anopheles albimanus; single treatment, 500 μL): 0.0%

C=CCSSCC=C [Allyl Disulfide]
% caught (Anopheles albimanus; single treatment, 500 μL): 0.0%

C[C@@H](O)C(=O)O [D-lactic acid]
Response (%) (Aedes aegypti; [3]): 8%
Response with Ace (%) (Aedes aegypti): 82%
Δ [(Resp with Ace) − Resp] (%) (Aedes aegypti): 74%

C[S+](C)[O-] [Dimethylsulfoxide]
Response Avg % (Aedes aegypti; [4]): 3.0%

CCS [Ethanethiol]
% caught (Anopheles albimanus; single treatment, 500 μL): 40.0%

CCOC(C)=O [Ethyl Acetate]
% caught (Anopheles albimanus; single treatment, 500 μL): 28.4%

C=O [Formaldehyde]
Response Avg % (Aedes aegypti; [4]): 1.0%

O=CO [Formic Acid]
% caught (Anopheles albimanus; in vivo): 0.0%

OCc1ccco1 [Furfuryl Alcohol]
% caught (Anopheles albimanus; single treatment, 500 μL): 46.7%

O=CC(=O)O [Glyoxylic Acid]
% caught (Anopheles albimanus; single treatment, 500 μL): 1.3%

c1ccc2[nH]ccc2c1 [Indole]
% caught (Anopheles albimanus; single treatment, 500 μL): 1.3%

CC(C)C=O [Isobutanal]
Response Avg % (Aedes aegypti; [5]): 13.0%

CC1=CC(=O)CC(C)(C)C1 [Isophorone]
% caught (Anopheles albimanus; single treatment, 500 μL): 13.3%

CCCCCCCCCCCC(=O)O [Laurie Acid]
% caught (Anopheles albimanus; single treatment, 500 μL): 1.3%

CO [MeOH]
Response Avg % (Aedes aegypti; [5]): 10.0%

CC(=O)C=C(C)C [Mesityl Oxide]
% caught (Anopheles albimanus; single treatment, 500 μL): 28.4%

CCCC(=O)OC [Methylbutyrate]
% caught (Anopheles albimanus; single treatment, 500 μL): 55.8%

CCCCC [Pentane]
% caught (Anopheles albimanus; single treatment, 500 μL): 2.7%

CC(C)=CC(=O)C=C(C)C [Phorone]
% caught (Anopheles albimanus; single treatment, 500 μL): 50.6%

c1cnccn1 [Pyrazine]
% caught (Anopheles albimanus; single treatment, 500 μL): 29.3%

ClC(Cl)=C(Cl)Cl [Tetrachloroethylene]
% caught (Anopheles albimanus; single treatment, 500 μL): 17.3%

c1ccsc1 [Thiophene]
% caught (Anopheles albimanus; single treatment, 500 μL): 68.0%

N#CC(Cl)(Cl)Cl [Trichloroacetonitrile]
% caught (Anopheles albimanus; single treatment, 500 μL): 65.3%

ClC=C(Cl)Cl [Trichloroethylene]
% caught (Anopheles albimanus; single treatment, 500 μL): 57.9%

CC=O [acetaldehyde]
Response with L-LA (%) (Aedes aegypti; [1]): 29%
Response (%) (Aedes aegypti; [2]): 8%
Δ [(Resp with LA) − Resp] (%) (Aedes aegypti): 21%

CC#N [acetonitrile]
Response with L-LA (%) (Aedes aegypti; [1]): 81%
Response (%) (Aedes aegypti; [2]): 27%
Δ [(Resp with LA) − Resp] (%) (Aedes aegypti): 54%

BrC(Br)Br [bromoform]
Response with L-LA (%) (Aedes aegypti; [1]): 64%
Response (%) (Aedes aegypti; [2]): 27%
Δ [(Resp with LA) − Resp] (%) (Aedes aegypti): 37%

O=C=O [carbon dioxide, reference compound]
Response Avg % (Aedes aegypti; CO2 alone, dose 0.5, Aedes aegypti attraction): 4.0%
Response with L-LA (%) (Aedes aegypti; carbon dioxide 5 ml/min with L-lactic acid): 68%

CCOCC [diethyl ether]
Response with L-LA (%) (Aedes aegypti; [1]): 56%
Response (%) (Aedes aegypti; [2]): 25%
Δ [(Resp with LA) − Resp] (%) (Aedes aegypti): 31%

C[S+](C)[O-] [dimethyl sulfoxide]
Response with L-LA (%) (Aedes aegypti; [1]): 30%
Response (%) (Aedes aegypti; [2]): 3%
Δ [(Resp with LA) − Resp] (%) (Aedes aegypti): 27%

CCO [ethanol]
Response with L-LA (%) (Aedes aegypti; [1]): 57%
Response (%) (Aedes aegypti; [2]): 9%
Δ [(Resp with LA) − Resp] (%) (Aedes aegypti): 48%

C=O [formaldehyde (37%), formaldehyde]
Response with L-LA (%) (Aedes aegypti; [1]): 5%
Response (%) (Aedes aegypti; [2]): 1%
Δ [(Resp with LA) − Resp] (%) (Aedes aegypti): 4%

O=C(O)CO [glycolic acid]
Response (%) (Aedes aegypti; [3]): 17%
Δ [(Resp with Ace) − Resp] (%) (Aedes aegypti): 64%

CC(C)C=O [isobutyraldehyde]
Response with L-LA (%) (Aedes aegypti; [1]): 32%
Response (%) (Aedes aegypti; [2]): 13%
Δ [(Resp with LA) − Resp] (%) (Aedes aegypti): 19%

CO [methanol]
Response with L-LA (%) (Aedes aegypti; [1]): 66%
Response (%) (Aedes aegypti; [2]): 10%
Δ [(Resp with LA) − Resp] (%) (Aedes aegypti): 56%

CCCCCCCCC=O [nonanal]
Δ [(Resp with LA) − Resp] (%) (Aedes aegypti): 10%

CCC(=O)O [propanoic acid]
Response with L-LA (%) (Aedes aegypti; [1]): 1%
Response (%) (Aedes aegypti; [2]): 3%
Δ [(Resp with LA) − Resp] (%) (Aedes aegypti): −2%
Response Avg % (Aedes aegypti; [4]): 3.0%

CCCCC/C=C/C(C)=O [t-3-Nonen-2-one]
% caught (Anopheles albimanus; single treatment, 500 μL): 10.7%

O=C(O)C(O)C(O)C(=O)O (stereo not shown) [tartaric acid]
Response (%) (Aedes aegypti; [3]): 9%
Response with Ace (%) (Aedes aegypti): 67%
Δ [(Resp with Ace) − Resp] (%) (Aedes aegypti): 58%

Cc1ccccc1 [toluene]
Response with L-LA (%) (Aedes aegypti; [1]): 59%
Response (%) (Aedes aegypti; [2]): 7%
Δ [(Resp with LA) − Resp] (%) (Aedes aegypti): 52%
